# From US20110217715A1, “GENE EXPRESSION IN DUCHENNE MUSCULAR DYSTROPHY” (CHILDREN'S HOSPITAL MEDICAL CENTER, priority 2008, published 2011)
# Columns and labels:
# individuals with DMD = details: cited from earlier work
# [1] = system: mRNA expression in peripheral blood of individuals with DMD; assay: Whole-blood gene expression microarray: DMD administered prednisone or deflazacort vs DMD not administered steroid; type: in vivo, human
# Method: Fifteen ml of blood was collected from each individual into 6 PAXgene® Vacutainer® tubes (PreAnalytiX, Germany) by antecubital fossa venipuncture. PAXgene® tubes contain a proprietary reagent that immediately stabilizes RNA, thus reducing RNA degradation and minimizing gene expression changes following phlebotomy. The tubes were then inverted 20 times, then remained undisturbed for 2 h at room temperature (about 19° C. to about 22° C.), and then stored at -70° C. until processed. Total RNA was isolated using the Paxgene® blood RNA kit (PreAnalytiX, Germany) according to the manufacturers instructions. The RNA isolated is from all cells in whole blood. […] Sample labeling, hybridization to chips, and image scanning were performed using standard Affymetrix protocols. For each whole blood sample from control individuals and individuals with DMD, total RNA was labeled using the One-Cycle Target Labeling protocol and hybridized to the arrays. […] Double-stranded cDNA synthesis, biotin-labeled cRNA synthesis, and cRNA fragmentation were performed according to the Affymetrix GeneChip Eukaryotic Expression Analysis protocol. […] After hybridization, the array was washed and stained. […] After scanning the array, the raw probe level values for each probe were saved in Affymetrix.cel files. […] Statistical analyses, including t-test analyses, unsupervised hierarchical clustering, and principal component analyses were conducted using Genespring 7.2 software ([…]® 7, Silicon Genetics, Redwood City Calif.). […] Corrections for multiple comparisons used a Benjamini-Hochberg False Discovery Rate (FDR) of 0.05, disclosed in Tang et al., J Cereb Blood Flow Metab 26 (2006) 1089, which is expressly incorporated by reference herein in its entirety. […] Individuals with DMD were evaluated and had been diagnosed by a single board-certified pediatric neurologist. The diagnosis of DMD was based in part upon clinical history, examination findings, and selected muscle biopsies and was confirmed by molecular diagnostic testing. […] Sample processing and array hybridization, probe-level data analysis, and statistical analysis were identical to Example 1.
# [2] = DMD administered deflazacort or prednisone vs not administered
smiles,measurement,setting,value
CC(=O)OCC(=O)[C@@]12N=C(C)O[C@@H]1C[C@H]1[C@@H]3CCC4=CC(=O)C=C[C@]4(C)[C@H]3[C@@H](O)C[C@@]12C [deflazacort],side effects / weight gain,"individuals with DMD; DMD individuals receiving deflazacort, relative to prednisone","fewer side effects, in particular, less weight gain"
same,muscle function and strength,individuals with DMD; individuals with DMD,improved muscle function and strength
same,expression levels of FKBP5,[1]; [2],up-regulated
same,expression levels of genes in the chondroitin sulfate biosynthesis pathway,[1]; [2],up-regulated
same,expression levels of haptoglobin and CD163 nucleic acids,[1]; [2],up-regulated
same,expression levels of lactotransferrin and lipocalin,[1]; [2],increased expression levels
same,expression of KFL10,"[1]; individuals administered prednisone, deflazacort, or both vs DMD not administered any agent",up-regulated
